# Key:
# HL-60 [1] = experiment: Cytotoxicity against human HL-60 cells; format: functional, cell-based
# U-251 [2] = experiment: Cytotoxicity against human U-251 cells; format: functional, cell-based
# SW480 [3] = experiment: Cytotoxicity against human SW480 cells; format: functional, cell-based
# MCF7 [4] = experiment: Cytotoxicity against human MCF7 cells; format: functional, cell-based
# HL-60 [5] = experiment: Cytotoxicity against human HL-60 cells by MTT assay; format: functional, cell-based
# U-251 [6] = experiment: Cytotoxicity against human U-251 cells by MTT assay; format: functional, cell-based
# SW480 [7] = experiment: Cytotoxicity against human SW480 cells by MTT assay; format: functional, cell-based
# MCF7 [8] = experiment: Cytotoxicity against human MCF7 cells by MTT assay; format: functional, cell-based
# L02 = experiment: Cytotoxicity against human L02 cells by MTT assay; format: cell-based
Structure (SMILES),IC50 (HL-60 [1]),IC50 (U-251 [2]),IC50 (SW480 [3]),IC50 (MCF7 [4]),IC50 (HL-60 [5]),IC50 (U-251 [6]),IC50 (SW480 [7]),IC50 (MCF7 [8]),Activity (L02)
C=C(CC[C@@H](C)[C@H]1CC[C@H]2C3=C(C(=O)C[C@]12C)[C@@]1(C)CCC(=O)[C@@H](C)[C@@H]1CC3=O)[C@H](C)C(=O)O [ANTCIN B],> 100 µM,> 100 µM,> 100 µM,> 100 µM,–,–,–,–,–
C=C(CC[C@@H](C)[C@H]1CC[C@H]2C3=C(C(=O)C[C@]12C)[C@@]1(C)CCC(=O)[C@@H](C)[C@@H]1C[C@H]3OC(C)=O)[C@H](C)C(=O)Nc1cccc2cccnc12,–,–,–,–,89.2 µM,> 100 µM,> 100 µM,> 100 µM,–
C=C(CC[C@@H](C)[C@H]1CC[C@H]2C3=C(C(=O)C[C@]12C)[C@@]1(C)CCC(=O)[C@@H](C)[C@@H]1C[C@H]3OC(C)=O)[C@H](C)C(=O)Nc1[nH]cnc1C(N)=O,–,–,–,–,> 100 µM,17.1 µM,17.9 µM,17.6 µM,–
C=C(CC[C@@H](C)[C@H]1CC[C@H]2C3=C(C(=O)C[C@]12C)[C@@]1(C)CCC(=O)[C@@H](C)[C@@H]1CC3=O)[C@H](C)C(=O)OC,25.2 µM,44.9 µM,> 100 µM,50.7 µM,–,–,–,–,–
C=C(CC[C@@H](C)[C@H]1CC[C@H]2C3=C(C(=O)C[C@]12C)[C@@]1(C)CCC(=O)[C@@H](C)[C@@H]1C[C@H]3OC(C)=O)[C@H](C)C(=O)Nn1cnnc1,–,–,–,–,> 100 µM,82.4 µM,> 100 µM,> 100 µM,–
C=C(CC[C@@H](C)[C@H]1CC[C@H]2C3=C(C(=O)C[C@]12C)[C@@]1(C)CCC(=O)[C@@H](C)[C@@H]1C[C@H]3OC(C)=O)[C@H](C)C(=O)Nc1ncc2ccccc2n1,–,–,–,–,8.9 µM,2.9 µM,40.8 µM,8.6 µM,Non-Toxic
CC(=O)O[C@H]1C(=O)[C@@]2(C)[C@H]([C@H](OC(=O)c3ccccc3)[C@]3(O)C[C@H](OC(=O)[C@H](O)[C@@H](NC(=O)c4ccccc4)c4ccccc4)C(C)=C1C3(C)C)[C@]1(OC(C)=O)CO[C@@H]1C[C@@H]2O [PACLITAXEL],–,–,–,–,0.08 µM,–,–,–,–
C=C(CC[C@@H](C)[C@H]1CC[C@H]2C3=C(C(=O)C[C@]12C)[C@@]1(C)CCC(=O)[C@@H](C)[C@@H]1C[C@H]3OC(C)=O)[C@H](C)C(=O)Nc1nc[nH]n1,–,–,–,–,> 100 µM,93.2 µM,> 100 µM,> 100 µM,–
C=C(CC[C@@H](C)[C@H]1CC[C@H]2C3=C(C(=O)C[C@]12C)[C@@]1(C)CC/C(=N\O)[C@@H](C)[C@@H]1C/C3=N/O)[C@H](C)C(=O)OC,–,–,–,–,3.7 µM,3.3 µM,2.2 µM,18.2 µM,Non-Toxic
C=C(CC[C@@H](C)[C@H]1CC[C@H]2C3=C(C(=O)C[C@]12C)[C@@]1(C)CCC(=O)[C@@H](C)[C@@H]1C[C@H]3OC(C)=O)[C@H](C)C(=O)O,> 100 µM,> 100 µM,> 100 µM,> 100 µM,–,–,–,–,–
C=C(CC[C@@H](C)[C@H]1CC[C@H]2C3=C(C(=O)C[C@]12C)[C@@]1(C)CCC(=O)[C@@H](C)[C@@H]1C[C@H]3OC(C)=O)[C@H](C)C(=O)Nc1ccc2[nH]ccc2c1,–,–,–,–,> 100 µM,10.4 µM,> 100 µM,12.3 µM,–
C=C(CC[C@@H](C)[C@H]1CC[C@H]2C3=C(C(=O)C[C@]12C)[C@@]1(C)CCC(=O)[C@@H](C)[C@@H]1C[C@H]3OC(C)=O)[C@H](C)C(=O)Nc1ccccc1N,–,–,–,–,0.7 µM,27.4 µM,> 100 µM,29.2 µM,Non-Toxic
C=C(CC[C@@H](C)[C@H]1CC[C@H]2C3=C(C(=O)C[C@]12C)[C@@]1(C)CCC(=O)[C@@H](C)[C@@H]1C[C@H]3OC(C)=O)[C@H](C)C(=O)OC,16.8 µM,11.4 µM,15.4 µM,46.3 µM,–,–,–,–,–
C=C(CC[C@@H](C)[C@H]1CC[C@H]2C3=C(C(=O)C[C@]12C)[C@@]1(C)CCC(=O)[C@@H](C)[C@@H]1C[C@H]3OC(C)=O)[C@H](C)C(=O)/N=c1/cc(CCc2ccccc2)[nH][nH]1,–,–,–,–,> 100 µM,> 100 µM,> 100 µM,> 100 µM,–
C=C(CC[C@@H](C)[C@H]1CC[C@H]2C3=C(C(=O)C[C@]12C)[C@@]1(C)CCC(=O)[C@@H](C)[C@@H]1C[C@H]3OC(C)=O)[C@H](C)C(=O)Nc1ccc2ccccc2n1,–,–,–,–,96.3 µM,95.8 µM,> 100 µM,> 100 µM,–

# Source: ChEMBL document CHEMBL4819113, “Chemical modifications of ergostane-type triterpenoids from Antrodia camphorata and their cytotoxic activities” (Bioorg Med Chem Lett, 2021)
